The nature of data set [1]: In vivo DMPK study, single dose in female Balb/c mice. The following applies: for half-life / clearance / Vd / bioavailability: female, Balb/c; for half-life / clearance / Vd / bioavailability / Cmax: mouse, plasma; for half-life: 1 mg/kg, note lists it as an intravenous parameter, read-out: T1/2 (half-life) (converted); for half-life / clearance / Vd / bioavailability / Oral DNAUC (dose-normalized area under curve): mice; for clearance / Vd: intravenous 1 mg/kg; for clearance: read-out: Cl (clearance); for Vd: read-out: Vd (apparent volume of distribution); for bioavailability: oral 3 mg/kg vs intravenous 1 mg/kg, read-out: F % (oral bioavailability); for Cmax: oral 3 mg/kg, female Balb/c mice. How it is done: Objective: To evaluate the plasma concentration of the compounds and pharmacokinetics after a single dose in female Balb/c mice.
Procedures: 8 healthy adult female Balb/c mice were randomized, 4 for intravenous administration and 4 for oral administration. The compounds were mixed with a proper amount of vehicle for intravenous injection (DMSO/PEG200/water (5:45:50 v/v/v)). The mixture was vortexed and treated with ultrasound to give a 1.0 mg/mL clear solution. The clear solution was filtered through a microporous membrane filter for later use. For the oral group, the vehicle was 0.5% MC/0.2% Tween 80. The compound was mixed with the vehicle, and the mixture was vortexed and ultrasonically treated to give 1.0 mg/mL uniform suspension for later use. The mice were administered intravenously at 1 mg/kg or orally at 3 mg/kg. Whole blood was collected at certain time points, and plasma was separated. The drug concentration was measured by LC-MS/MS, and pharmacokinetic parameters were calculated using
Phoenix WinNonlin software (Pharsight, USA).

Data set [2] has as its system human lymphoma TMD-8 subcutaneous xenograft tumors. Nature of the data set: In vivo efficacy study, TMD-8 subcutaneous xenograft in CB-17 SCID mice. Further details: species or system CB-17 SCID mouse. How it is done:
In Vivo Efficacy Study • Objectives: To evaluate the efficacy of the compounds on human lymphoma TMD-8 subcutaneous xenograft tumors in a CB-17 SCID mouse model. • Procedures: • (1) Cell Culture • Human lymphoma TMD-8 cells (Shanghai Junrui-UFBN1682) were cultivated in an RPMI 1640 medium containing 10% fetal bovine serum, 100 U/mL penicillin and 100 μg/mL streptomycin through monolayer culture in vitro in an incubator at 37° C./5% CO2. The cells were digested with trypsin-EDTA twice a week for passaging as per conventional practice. When the saturation reached 80%-90%, the cells were collected, counted and grafted. • (2) Tumor Cell Grafting
0.2 mL (1×10^7 cells) of TMD-8 cells (along with matrigel in a volume ratio of 1:1) was subcutaneously grafted on the right back of each mouse, and the mice were randomized when the mean tumor volume was 99 mm^3. • (3) Preparation of Test Compound
Vehicle group: 0.5% MC/0.2% Tween 80/99.3% water.
Test compound group: A certain amount of the compound was dissolved in a corresponding volume of vehicle in a brown flask. The mixture was vortexed to give a uniform suspension or clear solution.
The experimental indices were to investigate whether tumor growth was inhibited or delayed or the tumor was cured. Tumor diameters were measured twice weekly using a vernier caliper. The tumor volume was calculated according to the following formula: V=0.5a x b^2, where a and b represent the long diameter and short diameter of the tumor, respectively.
The efficacy of compounds against tumor was evaluated by TGI (%). TGI (%) refers to the rate of tumor growth inhibition.

For a further data set, the target named is PI3K gamma (Homo sapiens, UniProt P48736). Nature of the data set: In vitro enzyme activity assay (ADP-Glo lipid kinase), PI3K gamma. The following applies: PI3Kγ IC50, ATP 25 μM, PIP2:3PS 50 μM, 120 min.
The next data set relates to Jeko-1 cell. Briefly: Jeko-1 cell test (IgM-stimulated, phosphorylated AKT readout). The data set is classed as cell-based. The note with it: Homo sapiens, 2 h compound, IgM stimulation 10 min, phospho-AKT. How it is done:
(§1) 7) After incubation, readings at 620 and 665 nm on EnVingen were recorded. • <2> TMD-8 cell viability test • 1) Cell Culture

A further data set concerns the target PI3K delta (Homo sapiens, UniProt O00329). Briefly: In vitro enzyme activity assay (ADP-Glo lipid kinase), PI3K delta.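 Note: kinase reaction run at 23 °C, then leftover ATP depleted and the ADP formed turned back into ATP, with the luciferin/luciferase signal read as kinase activity.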 The following applies: PI3Kδ IC50, ATP 40 μM, PIP2:3PS 50 μM, 120 min.
Data set [3] can be described thus: Plasma protein binding rate, mouse. The note with it: read-out: PPB % (plasma protein binding rate) (converted). It is filed as in vitro ADME.
A short description of data set [4]: Plasma protein binding rate, human. The data set is classed as in vitro ADME. The note with it: read-out: PPB % (plasma protein binding rate) (converted).
A further data set deals with PI3K alpha (Homo sapiens, UniProt P42336). Nature of the data set: In vitro enzyme activity assay (ADP-Glo lipid kinase), PI3K alpha.
In another data set the target is PI3K beta (Homo sapiens, UniProt P42338). Briefly: In vitro enzyme activity assay (ADP-Glo lipid kinase), PI3K beta.
The test system of a further data set is TMD-8 cell. Nature of the data set: TMD-8 cell viability test (CellTiter-Glo, 72 h). It is filed as cell-based. The following applies: Homo sapiens, TMD8. On the procedure: as §1
Cells were regularly passaged. Cells at logarithmic growth phase were transferred to the plate. • 2) Plating • (1). Cells were stained with trypan blue and viable cells were counted. • (2). Cell concentration was adjusted to 7000 cells/well • (3). 90 μL of cell suspension was added to each well of the plate and cell-free medium was added to blank control wells. • (4). The plate was incubated overnight at 37° C., 5% CO2 and 100% relative humidity in an incubator. • 3) Preparation of Plate Containing Compound Stock
(1). Preparation of plate containing 400× compound stock: Compounds were diluted from the highest concentration gradient to lowest concentration with DMSO. • 4) Preparation of 10× compound working solution and treatment • (1). Preparation of 10× compound working solution: 78 μL of cell culture medium was added to a V-bottom 96-well plate, and 2 μL of compound stock solution was pipetted from the plate containing 400× compound stock into the cell cultures of 96-well plate. 2 μL of DMSO was added to the vehicle control wells and blank control wells. After compounds or DMSO was added, the mixture was well mixed by a pipette. • (2). 10 μL of DMSO-cell culture medium mixture solution was added to the vehicle control wells and blank control wells. The final concentration of DMSO was 0.25%. • (3). The 96-well cell plate was incubated in the incubator for another 72 h. • 5) CellTiter-Glo Luminescent Cell Viability Assay
The following procedure was performed according to the instructions of Promega CellTiter-Glo luminescent cell viability assay kit (Promega-G7573). • (1). CellTiter-Glo buffer was thawed and let stand at room temperature. • (2). The CellTiter-Glo substrate was let stand at room temperature. • (3). The CellTiter-Glo buffer was added to a flask of CellTiter-Glo substrate to dissolve the substrate, thereby preparing a CellTiter-Glo working solution. • (4). The solution was vortexed to completely dissolve the substrate. • (5). The plate was incubated at room temperature for 30 min for equilibration. • (6). 50 μL (equal to half the volume of cell culture medium in each well) of CellTiter-Glo working solution was added to each well. The plate was covered by aluminum foil to avoid light. • (7). The plate was shaken on an orbital shaker for 2 min to induce cell lysis. • (8). The plate was let stand at room temperature for 10 min to stabilize the luminescence signals. • (9). The luminescence signals were detected on 2104 EnVision plate reader.

Where [5] appears, read: 50 mg/kg(D0-D20) combined with ACP-196 50 mg/kg(D0-D17) + 25 mg/kg(D18-D20).
[6] abbreviates: 100 mg/kg(D0-D21) combined with ACP-196 75 mg/kg(D0-D21).

Results on eight compounds are retold here after patent publication US20220112217A1, “PYRAZOLOPYRIMIDINE DERIVATIVE AND USE THEREOF AS PI3K INHIBITOR” (MEDSHINE DISCOVERY INC., priority 2018, published 2022).

pIC50: −log10 of the molar value. Where only a bound is given, the exact number is not on record here.

Sequence of PI3K beta (P42338 whole entry): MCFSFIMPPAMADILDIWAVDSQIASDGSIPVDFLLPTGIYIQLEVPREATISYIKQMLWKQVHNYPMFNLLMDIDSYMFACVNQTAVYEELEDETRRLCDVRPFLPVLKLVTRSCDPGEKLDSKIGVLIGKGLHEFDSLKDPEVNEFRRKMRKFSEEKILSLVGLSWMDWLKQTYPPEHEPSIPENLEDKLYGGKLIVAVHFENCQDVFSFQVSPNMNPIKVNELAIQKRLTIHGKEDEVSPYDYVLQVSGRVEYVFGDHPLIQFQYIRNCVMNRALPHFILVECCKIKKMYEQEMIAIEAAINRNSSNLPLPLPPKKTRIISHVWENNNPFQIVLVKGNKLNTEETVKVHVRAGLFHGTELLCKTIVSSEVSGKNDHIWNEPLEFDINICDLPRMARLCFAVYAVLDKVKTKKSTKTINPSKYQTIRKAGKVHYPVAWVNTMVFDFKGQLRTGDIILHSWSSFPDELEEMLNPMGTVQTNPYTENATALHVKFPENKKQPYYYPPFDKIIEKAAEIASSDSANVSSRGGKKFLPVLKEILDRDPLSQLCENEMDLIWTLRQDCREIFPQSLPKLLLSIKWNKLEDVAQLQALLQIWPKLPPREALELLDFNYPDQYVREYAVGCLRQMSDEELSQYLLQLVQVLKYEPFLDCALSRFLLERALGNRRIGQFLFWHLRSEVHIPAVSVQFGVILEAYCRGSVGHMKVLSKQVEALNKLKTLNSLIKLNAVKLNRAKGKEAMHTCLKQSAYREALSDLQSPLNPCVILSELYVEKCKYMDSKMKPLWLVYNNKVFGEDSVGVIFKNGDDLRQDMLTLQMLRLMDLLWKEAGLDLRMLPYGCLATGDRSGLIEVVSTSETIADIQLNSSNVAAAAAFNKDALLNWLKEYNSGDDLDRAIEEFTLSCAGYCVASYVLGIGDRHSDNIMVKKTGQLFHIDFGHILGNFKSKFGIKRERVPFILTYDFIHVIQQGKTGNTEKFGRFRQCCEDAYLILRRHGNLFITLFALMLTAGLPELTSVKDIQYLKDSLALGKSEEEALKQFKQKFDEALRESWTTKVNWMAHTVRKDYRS
Sequence of PI3K beta (P27986 whole entry partner): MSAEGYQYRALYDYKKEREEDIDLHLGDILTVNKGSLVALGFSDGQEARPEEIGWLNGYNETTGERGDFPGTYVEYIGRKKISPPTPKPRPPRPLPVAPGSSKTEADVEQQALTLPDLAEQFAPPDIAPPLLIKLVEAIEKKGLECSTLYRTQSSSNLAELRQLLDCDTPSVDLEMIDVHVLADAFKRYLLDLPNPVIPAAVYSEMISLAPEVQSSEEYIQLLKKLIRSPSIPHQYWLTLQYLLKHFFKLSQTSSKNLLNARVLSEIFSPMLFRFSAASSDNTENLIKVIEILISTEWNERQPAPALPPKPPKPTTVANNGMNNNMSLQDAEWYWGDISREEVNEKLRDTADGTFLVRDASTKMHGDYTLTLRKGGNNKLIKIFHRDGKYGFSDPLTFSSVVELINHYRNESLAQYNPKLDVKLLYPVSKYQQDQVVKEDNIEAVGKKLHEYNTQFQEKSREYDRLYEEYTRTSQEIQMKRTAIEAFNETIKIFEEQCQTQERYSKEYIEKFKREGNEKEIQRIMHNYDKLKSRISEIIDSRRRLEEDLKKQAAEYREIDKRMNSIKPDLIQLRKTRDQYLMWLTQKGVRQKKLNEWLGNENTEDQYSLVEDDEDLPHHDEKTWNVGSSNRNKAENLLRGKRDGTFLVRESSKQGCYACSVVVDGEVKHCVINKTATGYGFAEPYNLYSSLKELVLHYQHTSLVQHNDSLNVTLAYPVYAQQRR
Sequence of PI3K delta (O00329 whole entry): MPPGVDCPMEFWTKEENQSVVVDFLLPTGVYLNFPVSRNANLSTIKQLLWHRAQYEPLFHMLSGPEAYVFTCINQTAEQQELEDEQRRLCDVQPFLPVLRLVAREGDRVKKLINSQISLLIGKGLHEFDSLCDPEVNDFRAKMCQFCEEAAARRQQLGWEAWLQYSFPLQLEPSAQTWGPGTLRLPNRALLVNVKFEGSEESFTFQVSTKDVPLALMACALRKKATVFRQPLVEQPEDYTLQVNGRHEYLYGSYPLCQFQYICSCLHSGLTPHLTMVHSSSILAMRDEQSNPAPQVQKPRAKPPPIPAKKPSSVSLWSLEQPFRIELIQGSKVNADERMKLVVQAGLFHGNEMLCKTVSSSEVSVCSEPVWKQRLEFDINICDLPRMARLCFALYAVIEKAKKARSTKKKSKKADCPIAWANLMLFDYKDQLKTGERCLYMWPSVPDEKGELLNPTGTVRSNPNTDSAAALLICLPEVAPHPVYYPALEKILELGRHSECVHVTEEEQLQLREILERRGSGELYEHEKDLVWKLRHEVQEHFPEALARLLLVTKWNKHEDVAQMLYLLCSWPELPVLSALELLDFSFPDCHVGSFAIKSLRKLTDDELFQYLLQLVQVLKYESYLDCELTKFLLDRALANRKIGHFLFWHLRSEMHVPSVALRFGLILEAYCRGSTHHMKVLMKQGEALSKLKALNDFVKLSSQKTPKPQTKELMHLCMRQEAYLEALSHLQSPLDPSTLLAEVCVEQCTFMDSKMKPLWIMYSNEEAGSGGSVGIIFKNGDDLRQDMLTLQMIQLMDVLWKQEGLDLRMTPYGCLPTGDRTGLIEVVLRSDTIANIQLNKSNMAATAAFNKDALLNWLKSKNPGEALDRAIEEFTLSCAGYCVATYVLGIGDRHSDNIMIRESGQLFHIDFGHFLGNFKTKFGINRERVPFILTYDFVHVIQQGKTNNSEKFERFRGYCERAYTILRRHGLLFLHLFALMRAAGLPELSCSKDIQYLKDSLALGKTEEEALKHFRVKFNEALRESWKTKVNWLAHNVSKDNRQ
Sequence of PI3K delta (P27986 whole entry partner): as the sequence (P27986 whole entry partner) above
Sequence of PI3K gamma (P48736 whole entry): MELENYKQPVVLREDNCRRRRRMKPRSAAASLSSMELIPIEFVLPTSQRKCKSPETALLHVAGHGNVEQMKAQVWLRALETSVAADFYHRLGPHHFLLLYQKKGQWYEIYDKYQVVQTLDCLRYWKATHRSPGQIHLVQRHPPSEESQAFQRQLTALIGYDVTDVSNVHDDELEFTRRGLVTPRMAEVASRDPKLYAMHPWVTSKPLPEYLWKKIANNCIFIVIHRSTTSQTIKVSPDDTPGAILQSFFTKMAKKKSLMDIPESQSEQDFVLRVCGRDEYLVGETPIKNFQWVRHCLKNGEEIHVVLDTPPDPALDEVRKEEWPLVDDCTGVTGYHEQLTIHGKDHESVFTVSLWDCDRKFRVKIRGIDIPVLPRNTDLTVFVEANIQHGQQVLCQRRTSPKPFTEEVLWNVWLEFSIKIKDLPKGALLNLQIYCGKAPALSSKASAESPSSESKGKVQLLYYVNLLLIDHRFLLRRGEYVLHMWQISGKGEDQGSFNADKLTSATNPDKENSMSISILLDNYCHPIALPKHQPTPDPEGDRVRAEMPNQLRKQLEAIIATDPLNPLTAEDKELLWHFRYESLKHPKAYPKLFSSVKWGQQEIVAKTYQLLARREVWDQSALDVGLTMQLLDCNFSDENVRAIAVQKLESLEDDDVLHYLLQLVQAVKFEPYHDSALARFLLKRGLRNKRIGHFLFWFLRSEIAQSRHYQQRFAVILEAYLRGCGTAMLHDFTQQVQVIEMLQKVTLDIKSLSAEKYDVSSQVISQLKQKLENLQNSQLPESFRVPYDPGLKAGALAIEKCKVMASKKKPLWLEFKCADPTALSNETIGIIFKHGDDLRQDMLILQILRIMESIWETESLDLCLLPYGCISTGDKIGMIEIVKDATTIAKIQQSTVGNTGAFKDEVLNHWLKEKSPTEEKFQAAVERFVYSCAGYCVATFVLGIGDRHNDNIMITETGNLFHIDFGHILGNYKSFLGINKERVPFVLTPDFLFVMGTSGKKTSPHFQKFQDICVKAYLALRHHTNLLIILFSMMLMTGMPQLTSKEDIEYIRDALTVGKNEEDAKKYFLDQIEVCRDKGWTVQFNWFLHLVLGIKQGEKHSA
Sequence of PI3K alpha (P42336 whole entry): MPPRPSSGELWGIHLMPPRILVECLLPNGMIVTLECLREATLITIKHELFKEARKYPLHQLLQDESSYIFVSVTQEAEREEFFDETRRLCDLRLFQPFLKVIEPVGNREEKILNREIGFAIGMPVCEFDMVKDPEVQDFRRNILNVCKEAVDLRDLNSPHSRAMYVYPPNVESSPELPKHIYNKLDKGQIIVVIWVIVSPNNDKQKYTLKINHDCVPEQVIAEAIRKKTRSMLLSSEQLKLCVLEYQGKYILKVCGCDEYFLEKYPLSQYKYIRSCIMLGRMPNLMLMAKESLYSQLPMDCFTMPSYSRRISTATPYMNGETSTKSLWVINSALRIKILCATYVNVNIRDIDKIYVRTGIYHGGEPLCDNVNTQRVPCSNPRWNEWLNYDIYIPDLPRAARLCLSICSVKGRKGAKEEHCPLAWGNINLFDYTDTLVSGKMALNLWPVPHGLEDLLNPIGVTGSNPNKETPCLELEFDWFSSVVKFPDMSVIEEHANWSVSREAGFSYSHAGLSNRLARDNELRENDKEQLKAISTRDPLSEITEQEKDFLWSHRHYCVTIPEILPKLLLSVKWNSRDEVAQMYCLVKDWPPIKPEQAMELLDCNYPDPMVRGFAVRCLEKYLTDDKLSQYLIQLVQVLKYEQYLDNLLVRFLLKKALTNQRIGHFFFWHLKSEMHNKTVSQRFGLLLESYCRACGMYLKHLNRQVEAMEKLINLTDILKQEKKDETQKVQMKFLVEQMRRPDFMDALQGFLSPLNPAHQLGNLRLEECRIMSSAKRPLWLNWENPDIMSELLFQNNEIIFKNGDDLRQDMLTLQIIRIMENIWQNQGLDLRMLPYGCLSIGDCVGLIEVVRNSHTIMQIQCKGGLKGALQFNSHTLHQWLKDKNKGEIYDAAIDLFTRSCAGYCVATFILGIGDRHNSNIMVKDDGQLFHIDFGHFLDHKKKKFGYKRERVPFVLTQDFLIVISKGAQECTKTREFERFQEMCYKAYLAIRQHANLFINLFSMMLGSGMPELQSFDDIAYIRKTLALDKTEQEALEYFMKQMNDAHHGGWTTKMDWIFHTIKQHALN
Sequence of PI3K alpha (P27986 whole entry partner): as the sequence (P27986 whole entry partner) above
Protocol for PI3K alpha: (§2) An appropriate substrate and ATP were incubated at a suitable condition for lipid kinase reaction, followed by a two-step detection of kinase activity using an ADP-Glo™ kit. Step I: The kinase reaction was terminated and residual ATP was completely removed, leaving ADP only; Step II: A kinase assay reagent was added to convert ADP to ATP by a luciferin/luciferase reaction. Finally, a fluorescence output value was detected and converted into kinase activity.
(§3) • 2) Kit: ADP-Glo™ lipid kinase and PIP2:3PS kit (Promega #V1792)
(§4) The mixture was incubated at 23° C. for 20 min • (10) 2 μL of ATP solution was added, and the mixture was centrifuged at 1000 rpm and was shaken to mix well • (11) The plate was covered, shaken for about 30 s, and incubated for 2 h at 23° C. • (12) 5 μL of ADP-Glo reagent containing 10 mM MgCl2 was added • (13) The mixture was centrifuged at 1000 rpm for 10 s, covered and shaken for about 30 s, and incubated at 23° C. for 60 min • (14) 10 μL of kinase assay reagent was added • (15) The mixture was centrifuged at 1000 rpm for 10 s, and incubated at 23° C. for 60 min • (16) Fluorescence values were measured by an Envision system. • 2. […] The mixture was incubated at 37° C./CO2 for 10 min. • 5) The compound was removed by pipette. Lysis buffer was added at 50 μL/well, and the cells wereincubated on a shaker for 30 min. • 6) After the cells were completely lysed, 16 μL of lysate was transferred to a 384-well plate and 4 μL of prepared AC+D2 in the kit was added. (AC: Eu3+-cryptate antibody binds to phosphorylated AKT, while D2 binds to non-phosphorylated AKT) The mixture was incubated at room temperature for 4 h.
Protocol for PI3K beta: as §2, §3, §4
Protocol for PI3K delta: as §2, §3
The kit comprises: 1 mM PIP2:3PS, 10× lipid dilution buffer, 1 M magnesium chloride, 10 mM ATP, 10 mM ADP, ADP-Glo reagent, detection buffer and substrate. • 3) Plate: OptiPlate-384, white and transparent (PerkinElmer #6007299) Reagent preparation: • 1) 10x reaction buffer: 500 mM HEPES (4-(2-hydroxyethyl)-1-piperazineethanesulfonic acid), pH 7.5, 500 mM NaCl, 9 mM MgCl2; BSA: 10% stock solution, prepared in-house • 2) Condition for final test system: 1× reaction system: 50 mM HEPES, 50 mM NaCl, 3 mM MgCl2, 0.01% BSA (prepared on the day of experiment), 1% DMSO (v/v) +/−compound • 3) Reaction system: 3 μL of enzyme and substrate mixture (1:1) +2 μL of ATP/MgCl2 mixture +5 μL of ADP-Glo reagent +10 μL detection reagent.
The specific experimental procedures are as follows: • 1) Dilution: 50 nL of 100× compound/DMSO solution were transferred into a test plate using Echo • For PI3Kα, the compound was serially diluted by three fold from the highest concentration 0.111 mM to the 10th concentration. • For PI3Kβ/PI3Kδ/PI3Kγ, the compound was serially diluted by three fold from the highest concentration of 1.11 mM to the 10th concentration. • 2) Kinase reaction: • (1) The target compounds were prepared. 50 nL of 100× compound solution or DMSO was added to the corresponding plate • (2) A 3.33 × reaction buffer was prepared • (3) A 3.33× PIP2:3PS solution were prepared; the PIP2:3PS solution should be thawed by vortex for at least 1 min before use • (4) An ATP solution containing 5.25 mM MgCl2 was prepared • (5) 3.33× PI3Kα/PI3Kβ/PI3Kδ/PI3Kγ solutions were prepared • (6) The lipid kinase solution and PIP2:3PS solution were mixed at a volume ratio of 1:1 • (7) The 3.33 × lipid kinase buffer and PIP2:3PS solution were mixed at a volume ratio of 1:1 • (8) 3 μL of the mixed solution of reaction buffer and PIP2:3PS was added to Columns 1 and 2 of the plate • (9) 3 μL of the mixed solution of the enzyme and PIP2:3PS was added to the wells of the plate other than Columns 1 and 2, and was centrifuged for 10 s (1000 rpm). The mixture was incubated at 23° C. for 20 min • (10) 2 μL of ATP solution was added, and the mixture was centrifuged at 1000 rpm and was shaken to mix well • (11) The plate was covered, shaken for about 30 s, and incubated for 2 h at 23° C. • (12) 5 μL of ADP-Glo reagent containing 10 mM MgCl2 was added • (13) The mixture was centrifuged at 1000 rpm for 10 s, covered and shaken for about 30 s, and incubated at 23° C. for 60 min • (14) 10 μL of kinase assay reagent was added • (15) The mixture was centrifuged at 1000 rpm for 10 s, and incubated at 23° C. for 60 min • (16) Fluorescence values were measured by an Envision system. • 2.
Protocol for PI3K gamma: as §2, §3, §4

With `CC(C)Oc1ccc(-c2nn(C(C)c3nc4ccc(F)cn4c(=O)c3-c3cccc(F)c3)c3ncnc(N)c23)cc1F` (single isomer, unassigned) [WX001], the half-life in [1] was 4.8 h. For the same compound, in data set [1], the clearance stood at 4.44 mL/min/kg. Further, the Vd in [1] was 2.02 L/kg. In addition, the bioavailability in data set [1] was found to be 101%. This compound gave a Cmax in data set [1] of 1610 nM. Further, the “Oral DNAUC (dose-normalized area under curve)” value in data set [1] is given as 7179 nM · h/mpk. Besides, the TGI amounted to 108.10% in [2] (25 mg/kg(D0-D20) combined with ACP-196 50 mg/kg(D0-D17) + 25 mg/kg(D18-D20)), 108.14% in data set [2] (setting [5]), 108.10% in [2] (75 mg/kg(D0-D20) combined with ACP-196 50 mg/kg(D0-D17) + 25 mg/kg(D18-D20)) and 103.95% in [2] (setting [6]). The negative logarithm of the IC50 (pIC50) against PI3K gamma is 6.33; in the data set on Jeko-1 cell, 6.21; against PI3K delta it was 6.40; against PI3K alpha, < 5.00; on PI3K beta, < 5.00; in the data set on TMD-8 cell, 5.53. The fraction unbound in data set [3] is 0.023; in [4], 0.034.

For the compound `CC(C)Oc1ccc(-c2nn(C(C)c3nc4ccc(F)cn4c(=O)c3-c3cccc(F)c3)c3ncnc(N)c23)cn1` (single isomer, unassigned) [WX004], the pIC50 against PI3K gamma is 5.91; with Jeko-1 cell, 5.88; against PI3K delta it was 6.59; at PI3K alpha it was < 5.00; on PI3K beta, < 5.00.

For the compound `COc1ncc(-c2nn(C(C)c3nc4ccc(F)cn4c(=O)c3-c3cccc(F)c3)c3ncnc(N)c23)cc1C#N` (single isomer, unassigned) [WX005], the pIC50 on PI3K gamma was 5.09; with Jeko-1 cell it was 6.08; against PI3K delta it was 6.92; against PI3K alpha it was < 5.00; against PI3K beta, < 5.00.

Take `COc1ncc(-c2nn(C(C)c3nc4ccc(F)cn4c(=O)c3-c3cccc(F)c3)c3ncnc(N)c23)s1` (single isomer, unassigned) [WX007]: in data set [1], the half-life is 0.644 h, the clearance was found to be 36.7 mL/min/kg, the Vd is 1.75 L/kg and the bioavailability was 84.7%. Besides, in data set [1], the maximum concentration (Cmax) turned out to be 1590 nM and the “Oral DNAUC (dose-normalized area under curve)” value is 674.0 nM · h/mpk. In data set [2] (setting [6]), the TGI stood at 103.16%. The same compound showed a pIC50 against PI3K gamma of 6.73. In addition, in the data set with Jeko-1 cell, the pIC50 was 6.90. Also, on PI3K delta, the pIC50 was 8.73. In [3], the fraction unbound was 0.086. In addition, the fraction unbound in data set [4] is 0.217. In the data set with TMD-8 cell, this compound showed a negative logarithm of the IC50 (pIC50) of 6.23.

As for `COc1ccc(-c2nn(C(C)c3nc4ccc(F)cn4c(=O)c3-c3cccc(F)c3)c3ncnc(N)c23)cn1` (single isomer, unassigned) [WX012], in data set [1], the highest concentration (Cmax) turned out to be 3180 nM. Also, in data set [1], the “Oral DNAUC (dose-normalized area under curve)” value was 2820 nM · h/mpk. Further, the pIC50 is 5.69 at PI3K gamma; 6.24 with Jeko-1 cell; 7.27 against PI3K delta; < 5.00 against PI3K alpha; < 5.00 against PI3K beta. Moreover, the fraction unbound was 0.192 in data set [3] and 0.256 in [4].

Regarding `CC(C)Oc1ccc(-c2nn([C@@H](C)c3oc4ccc(F)cc4c(=O)c3-c3cccc(F)c3)c3ncnc(N)c23)cc1F` [TGR-1202, reference compound], the half-life in data set [1] was 5.66 h. Also, in data set [1], the clearance was 8.54 mL/min/kg. For the same compound, the Vd in data set [1] came to 4.2 L/kg. The bioavailability in [1] amounted to 91.7%. In [1], this compound registered a Cmax of 651 nM. The “Oral DNAUC (dose-normalized area under curve)” value in data set [1] is given as 3043 nM · h/mpk. In [2] (setting [6]), the TGI worked out at 103.25%. The pIC50 is 6.09 against PI3K gamma; 6.32 with Jeko-1 cell; < 5.00 against PI3K alpha; < 5.00 against PI3K beta; 5.39 in the data set on TMD-8 cell. Besides, the fraction unbound in data set [3] and in [4] was 0.003 in each case.

With `COCc1ncc(-c2nn(C(C)c3nc4ccc(F)cn4c(=O)c3-c3cccc(F)c3)c3ncnc(N)c23)s1` (stereo not drawn) [WX026], in [1], the half-life was 1.99 h, the Cmax was found to be 5260 nM and the “Oral DNAUC (dose-normalized area under curve)” value stood at 2406 nM · h/mpk. In addition, the negative-log IC50 (pIC50) on PI3K gamma is 5.65. Also, the negative-log IC50 (pIC50) against PI3K delta was 7.47. In data set [3], the fraction unbound is 0.146. Moreover, the fraction unbound in [4] is 0.263.

`COc1ncc(-c2nn(C(C)c3nc4ccc(F)cn4c(=O)c3-c3cccc(F)c3)c3ncnc(N)c23)cn1` (stereo not drawn) [WX042]: in [1], the half-life is 3.15 h, the clearance amounted to 5.54 mL/min/kg, the Vd was 1.43 L/kg and the bioavailability is 49.3%. In data set [1], the Cmax stood at 2620 nM and the “Oral DNAUC (dose-normalized area under curve)” value came out at 2583 nM · h/mpk. Also, the TGI in data set [2] (setting [5]) was determined as 108.01%. For the same compound, at PI3K gamma, the pIC50 is 5.44. This compound also showed a pIC50 against PI3K delta of 7.33. In the data set with TMD-8 cell, this compound showed a negative logarithm of the IC50 (pIC50) of 5.55.
